Patent US7230010B2, “1,2,4-triazole derivative, method for preparing the same, and pharmaceutical composition containing the same” (CJ Corp., priority 2002, dated 2007)

Experiments:
COX-1 = biological target: T1, COX-1 (Homo sapiens, UniProt P23219); test: Assay for the COX-1 inhibitory activity using U-937; assay type: cell-based; conditions: 1 μM test compound; PGE2 inhibition in U-937 human lymphoma cells vs DMSO control; read-out: Cyclooxygenase (COX) Inhibition (%) COX-1 (1 μM)
T1 construct: host or cells: U-937 human lymphoma cells
Description: The collected cells were diluted with HBSS (x1, Hank's balanced salt solution) to a concentration of 1×10^6 cells/ml. 1 ml of the dilute cell solution was placed into each well of 12-well plates. 5 μl of 1 μM solution of a test compound in DMSO and 5 μl of DMSO as a control were added to the wells. The wells were incubated in CO2 incubator at 37° C. for 15 minutes. Separately, 10 mM stock solution of arachidonic acid in ethanol was diluted ten times in ethanol to prepare 1 mM solution of arachidonic acid. Arachidonic acid acts as a substrate. 10 μl of the 1 mM solution of arachidonic acid was added to each well and incubated at CO2 incubator at 37° C. for 30 minutes. The cell solution of each well was placed in a centrifuge test tube and centrifuged at 10,000 rpm at 4° C. for 5 minutes. The concentration of PGE2 in the collected cells and the supernatant was quantified by means of a monoclonal kit (Cayman Chemicals). The percentages of PGE2 inhibition in a group of the test compound-treated cells in relation to a group of the DMSO-treated cells were calculated. Based on the calculated values, the COX-1 inhibitory activities were evaluated.
(§1) % Inhibition=(concentration of PGE2 in test compound-untreated sample−concentration of PGE2 in test compound-treated sample)/(concentration of PGE2 in test compound-untreated sample)×100

COX-2 = biological target: T2, COX-2 (Mus musculus, UniProt Q05769); test: Assay for the COX-2 inhibitory activity using RAW 264.7 cell line; assay type: cell-based; conditions: RAW264.7; 10 nM test compound; PGE2 in RAW 264.7 cells treated with interferon γ and LPS, 18 hours; read-out: Cyclooxygenase (COX) Inhibition (%) COX-2 (10 nM)
T2 construct: host or cells: RAW 264.7 cells, aspirin-pretreated, induced with interferon γ and LPS
T2 sequence (Q05769 18-604): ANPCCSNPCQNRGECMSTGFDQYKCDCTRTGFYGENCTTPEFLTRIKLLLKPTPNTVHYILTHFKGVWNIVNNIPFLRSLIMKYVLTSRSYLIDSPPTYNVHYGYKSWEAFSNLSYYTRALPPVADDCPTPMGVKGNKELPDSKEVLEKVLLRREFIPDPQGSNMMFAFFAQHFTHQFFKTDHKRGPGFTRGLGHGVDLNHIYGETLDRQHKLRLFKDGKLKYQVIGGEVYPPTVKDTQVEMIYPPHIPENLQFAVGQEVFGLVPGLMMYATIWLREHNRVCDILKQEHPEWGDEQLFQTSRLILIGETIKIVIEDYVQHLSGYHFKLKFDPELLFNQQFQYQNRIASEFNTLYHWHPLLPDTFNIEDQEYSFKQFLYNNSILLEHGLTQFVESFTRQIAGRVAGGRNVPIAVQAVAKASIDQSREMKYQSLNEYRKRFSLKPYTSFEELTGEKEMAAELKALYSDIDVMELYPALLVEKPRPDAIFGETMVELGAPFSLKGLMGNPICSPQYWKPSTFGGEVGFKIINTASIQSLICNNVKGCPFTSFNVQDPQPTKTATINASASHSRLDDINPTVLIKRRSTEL
Description: Each well was treated with 250 μM of aspirin and incubated at 37° C. for 2 hours. After the culture media were replaced with new culture media, the new culture media were treated with a test compound (10 nM) and incubated for 30 minutes. Then, each well was treated with interferon γ (100 units/ml) and lipopolysaccharide (LPS, 100 ng/ml) and incubated for 18 hours. The culture media were transferred to other test tubes. The concentration of PGE2 was quantified by means of the EIA kit (Cayman Chemicals).
as §1

T1 sequence (P23219 24-599): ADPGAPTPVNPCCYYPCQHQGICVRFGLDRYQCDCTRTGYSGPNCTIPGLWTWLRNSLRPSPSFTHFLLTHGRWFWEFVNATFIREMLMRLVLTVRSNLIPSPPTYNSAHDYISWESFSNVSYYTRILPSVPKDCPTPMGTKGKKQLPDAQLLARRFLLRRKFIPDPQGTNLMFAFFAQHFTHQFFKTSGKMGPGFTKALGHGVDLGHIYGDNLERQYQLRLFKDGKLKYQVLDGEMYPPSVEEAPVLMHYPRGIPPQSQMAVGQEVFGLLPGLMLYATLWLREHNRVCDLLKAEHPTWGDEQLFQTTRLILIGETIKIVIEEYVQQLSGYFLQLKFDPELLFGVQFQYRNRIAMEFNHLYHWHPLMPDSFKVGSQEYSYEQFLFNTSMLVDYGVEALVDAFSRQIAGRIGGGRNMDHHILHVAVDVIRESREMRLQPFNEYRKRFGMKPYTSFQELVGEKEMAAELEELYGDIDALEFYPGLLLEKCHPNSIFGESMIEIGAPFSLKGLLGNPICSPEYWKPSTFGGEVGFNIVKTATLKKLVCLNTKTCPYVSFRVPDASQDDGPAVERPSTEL

Row | Compound | inhibition at 1 µM (COX-1) | inhibition at 0.01 µM (COX-2)
1 | CS(=O)(=O)c1ccc(-n2nc(C(F)(F)F)nc2-c2ccc3ccccc3c2)cc1 [Example 10, 1-(4-methylsulfonylphenyl)-5-(naphthalene-2-yl)-3-trifluoromethyl-1H-1,2,4-triazole] | 26.2% | 12.3%
2 | CS(=O)(=O)c1ccc(-n2nc(C(F)(F)F)nc2-c2cc3ccccc3o2)cc1 [Example 11, 5-(benzofuran-2-yl)-1-(4-methylsulfonylphenyl)-3-trifluoromethyl-1H-1,2,4-triazole] | 24.3% | 10.6%
3 | CS(=O)(=O)c1ccc(-n2nc(C(F)(F)F)nc2-c2cc3ccccc3[nH]2)cc1 [Example 12, 2-[2-(4-methylsulfonylphenyl)-5-trifluoromethyl-2H-1,2,4-triazole-3-yl]-1H-indole] | 26.3% | 5.67%
4 | Cn1c(-c2nc(C(F)(F)F)nn2-c2ccc(S(C)(=O)=O)cc2)cc2ccccc21 [Example 13, 1-methyl-2-[2-(4-methylsulfonylphenyl)-5-trifluoromethyl-2H-1,2,4-triazole-3-yl]-1H-indole] | 9.8% | 25.7%
5 | Cn1cc(-c2nc(C(F)(F)F)nn2-c2ccc(S(C)(=O)=O)cc2)c2ccccc21 [Example 14, 1-methyl-3-[2-(4-methylsulfonylphenyl)-5-trifluoromethyl-2H-1,2,4-triazole-3-yl]-1H-indole] | 21.3% | 6.02%
6 | CS(=O)(=O)c1ccc(-n2nc(C(F)(F)F)nc2-c2ccc3ccccc3n2)cc1 [Example 15, 2-[2-(4-methylsulfonylphenyl)-5-trifluoromethyl-2H-1,2,4-triazole-3-yl]quinoline] | 22.3% | 5.42%
7 | NS(=O)(=O)c1ccc(-n2nc(C(F)(F)F)nc2-c2ccc3ccccc3c2)cc1 [Example 16, 4-[5-(naphthalene-2-yl)-3-trifluoromethyl-1,2,4-triazole-1-yl]benzenesulfonamide] | 32.9% | 16.3%
8 | CS(=O)(=O)c1ccc(-n2nc(C(F)(F)F)nc2-c2ccc3ccccc3c2)nc1 [Example 17, 5-methanesulfonyl-2-[5-(naphthalene-2-yl)-3-trifluoromethyl-1,2,4-triazole-1-yl]pyridine] | 10.6% | 23.3%
